{"source": "ChEMBL document CHEMBL5537205", "about": "“Discovery of D25, a Potent and Selective MNK Inhibitor for Sepsis-Associated Acute Spleen Injury” (J Med Chem, 2024)", "key": {"[1]": {"molecular_target": "MAP kinase-interacting serine/threonine-protein kinase 2 (Homo sapiens, UniProt Q9HBH9)", "sequence (Q9HBH9 whole entry)": "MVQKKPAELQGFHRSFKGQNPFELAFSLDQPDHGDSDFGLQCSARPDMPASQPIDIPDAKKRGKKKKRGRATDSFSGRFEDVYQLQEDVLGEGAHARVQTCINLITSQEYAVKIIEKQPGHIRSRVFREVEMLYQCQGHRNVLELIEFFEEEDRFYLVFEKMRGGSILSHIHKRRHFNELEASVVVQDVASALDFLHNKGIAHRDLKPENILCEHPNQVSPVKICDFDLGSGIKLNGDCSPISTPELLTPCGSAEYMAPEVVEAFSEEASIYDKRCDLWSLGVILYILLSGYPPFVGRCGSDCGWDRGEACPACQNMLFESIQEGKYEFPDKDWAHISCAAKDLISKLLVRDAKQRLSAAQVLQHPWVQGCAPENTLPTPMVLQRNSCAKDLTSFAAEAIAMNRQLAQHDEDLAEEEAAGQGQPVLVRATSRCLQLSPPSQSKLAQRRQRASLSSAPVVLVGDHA", "assay": "Inhibition of MNK2 (unknown origin) incubated for 60 mins in presence of ATP by HTRF assay"}, "MV4-11": {"system": "MV4-11", "assay": "Antiproliferative activity against human MV4-11 cells assessed as inhibition of cell proliferation incubated for 48 hrs by CCK8 assay", "format": "functional, cell-based", "settings": "MV4-11, 48 h"}, "RAW264.7": {"system": "RAW264.7", "assay": "Antiinflammatory activity in LPS-induced mouse RAW264.7 cells assessed as increase in Arg1 protein expression by Western blot analysis", "format": "functional, cell-based", "settings": "dose <= 20.0 µM"}, "[2]": {"assay": "Toxicity in BALB/c mouse assessed as change in body weight at 10 to 20 mg/kg, po administered for 14 days", "format": "organism-based", "settings": "in vivo, 336 h, dose 10-20 mg/kg, time 14 day"}, "Mus musculus [3]": {"system": "Mus musculus", "assay": "Antiinflammatory activity in LPS-induced BALB/c sepsis mouse model assessed as decrease in inflammatory cells in spleen at 10 to 20 mg/kg, po preadministered with compound for 14 days followed by LPS stimulation and measured after 6 hrs by H&E staining based analysis", "format": "functional, organism-based", "settings": "dose 10-20 mg/kg, time 342.0 hrs"}, "Mus musculus [4]": {"system": "Mus musculus", "assay": "Antiinflammatory activity in LPS-induced BALB/c sepsis mouse model assessed as decrease in serum AST level at 10 to 20 mg/kg, po preadministered with compound for 14 days followed by LPS stimulation and measured after 6 hrs", "format": "functional, organism-based", "settings": "dose 10-20 mg/kg, time 342.0 hrs"}, "Mus musculus [5]": {"system": "Mus musculus", "assay": "Antiinflammatory activity in LPS-induced BALB/c sepsis mouse model assessed as decrease in serum creatinine level at 10 to 20 mg/kg, po preadministered with compound for 14 days followed by LPS stimulation and measured after 6 hrs", "format": "functional, organism-based", "settings": "dose 10-20 mg/kg, time 342.0 hrs"}, "Mus musculus [6]": {"system": "Mus musculus", "assay": "Antiinflammatory activity in LPS-induced BALB/c sepsis mouse model assessed as decrease in serum IL-1beta level at 20 mg/kg, po preadministered with compound for 14 days followed by LPS stimulation and measured after 6 hrs by ELISA", "format": "functional, organism-based", "settings": "time 342.0 hrs"}, "Mus musculus [7]": {"system": "Mus musculus", "assay": "Antiinflammatory activity in LPS-induced BALB/c sepsis mouse model assessed as decrease in phosphorylated eIF4E level in spleen at 10 to 20 mg/kg, po preadministered with compound for 14 days followed by LPS stimulation and measured after 6 hrs by Western blot analysis", "format": "functional, organism-based", "settings": "dose 10-20 mg/kg, time 342.0 hrs"}, "Mus musculus [8]": {"system": "Mus musculus", "assay": "Antiinflammatory activity in LPS-induced BALB/c sepsis mouse model assessed as decrease in TNF-alpha level in spleen at 10 to 20 mg/kg, po preadministered with compound for 14 days followed by LPS stimulation and measured after 6 hrs by Western blot analysis", "format": "functional, organism-based", "settings": "dose 10-20 mg/kg, time 342.0 hrs"}, "Mus musculus [9]": {"system": "Mus musculus", "assay": "Antiinflammatory activity in LPS-induced BALB/c sepsis mouse model assessed as decrease in IL-6 level in spleen at 10 to 20 mg/kg, po preadministered with compound for 14 days followed by LPS stimulation and measured after 6 hrs by Western blot analysis", "format": "functional, organism-based", "settings": "dose 10-20 mg/kg, time 342.0 hrs"}, "[10]": {"assay": "Half-life in Sprague-Dawley rat at 5 mg/kg, iv measured after 48 hrs", "format": "ADME, organism-based", "settings": "in vivo"}, "[11]": {"assay": "Clearance in Sprague-Dawley rat at 5 mg/kg, iv measured after 48 hrs", "format": "ADME, organism-based", "settings": "in vivo"}, "[12]": {"assay": "AUC (0 to t) in Sprague-Dawley rat at 20 mg/kg, po measured after 48 hrs", "format": "ADME, organism-based", "settings": "in vivo"}}, "note": "Activity calls are given as the source filed them. The calls are words filed in the database; no cut-off is given here.", "data": [{"smiles": "c1cc(-c2cc(C3CCNCC3)n[nH]2)c2cc[nH]c2n1", "values": [{"measurement": "IC50", "setting": "[1]", "value": 0.135, "unit": "µM"}, {"measurement": "IC50", "setting": "MV4-11", "value": 0.55, "unit": "µM"}, {"measurement": "Activity", "setting": "RAW264.7", "value": "Dose-Dependent Effect"}, {"measurement": "Activity", "setting": "[2]", "value": "Non-Toxic"}, {"measurement": "Activity", "setting": "Mus musculus [3]", "value": "Active"}, {"measurement": "Activity", "setting": "Mus musculus [4]", "value": "Active"}, {"measurement": "Activity", "setting": "Mus musculus [5]", "value": "Active"}, {"measurement": "Activity", "setting": "Mus musculus [6]", "value": "Active"}, {"measurement": "Activity", "setting": "Mus musculus [7]", "value": "Active"}, {"measurement": "Activity", "setting": "Mus musculus [8]", "value": "Active"}, {"measurement": "Activity", "setting": "Mus musculus [9]", "value": "Active"}, {"measurement": "half-life", "setting": "[10]", "value": 5.52, "unit": "h"}, {"measurement": "clearance", "setting": "[11]", "value": 52, "unit": "mL/min/kg"}, {"measurement": "AUCt", "setting": "[12]", "value": 755.3, "unit": "ng·h/mL"}]}]}
